In brackets after ≈: the same amount, converted by molar mass. Read-outs that look alike come from different tables or passages of the source.
What was measured:
Type in all cases: cell-based
E. coli NIHJ = assay: Minimal inhibitory concentration; settings: II A: E. coli NIHJ; for MIC: Escherichia coli
From the text: (§1) Minimal inhibitory concentrations of various microorganisms mcg/ml

Proteus vulgaris = assay: Minimal inhibitory concentration; settings: for MIC: read-out: Minimal inhibitory concentration
From the text: as §1

[1] = system: Klebsiella neumoniae 846 (CER resistant); assay: Minimal inhibitory concentration; settings: IV B: Klebsiella neumoniae 846 (CER resistant)
From the text: as §1
IV B Klebsiella neumoniae 846 (CER resistant)

[2] = system: Salmonella enteritidis Gaertner; assay: Minimal inhibitory concentration; settings: for MIC: Salmonella enterica, read-out: Minimal inhibitory concentration
From the text: as §1
VI Salmonella enteritidis Gaertner

[3] = system: E. coli 609 (CER resistant); assay: Minimal inhibitory concentration; settings: for MIC: Escherichia coli, read-out: Minimal inhibitory concentration
From the text: as §1
II B E. coli 609 (CER resistant)

[4] = system: Staphylococcus aureus (CP and PC resistant); assay: Minimal inhibitory concentration; settings: I B: Staphylococcus aureus (CP and PC resistant)
From the text: as §1
1 B Staphylococcus aureus

Klebsiella neumoniae 806 = assay: Minimal inhibitory concentration
From the text: as §1
IV A Klebsiella neumoniae 806

[5] = system: broad pathogenic microorganisms; assay: antimicrobial activity; settings: result in words
[6] = system: Staphylococcus aureus 209p; assay: Minimal inhibitory concentration; settings: for MIC: read-out: Minimal inhibitory concentration
From the text: as §1
1 A Staphylococcus aureus 209p

[7] = system: Shigella flexneri Komagome; assay: Minimal inhibitory concentration; settings: III: Shigella flexneri Komagome; for MIC: read-out: Minimal inhibitory concentration
From the text: as §1
III Shigella flexneri Komagome

[8] = VI: Salmonella enteritidis Gaertner
[9] = IV A: Klebsiella neumoniae 806, read-out: Minimal inhibitory concentration
[10] = I A: Staphylococcus aureus 209p
[11] = II B: E. coli 609 (CER resistant)

| Compound | MIC (E. coli NIHJ) | MIC (Proteus vulgaris; V: Proteus vulgaris) | MIC [1] | MIC [2, 8] | MIC [4] | MIC (Klebsiella neumoniae 806; [9]) | antimicrobial activity against broad pathogenic microorganisms [5] | MIC [6, 10] | MIC [7] | MIC [3, 11] | other results |
| --- | --- | --- | --- | --- | --- | --- | --- | --- | --- | --- | --- |
| CO[C@@]1(NC(=O)CSc2nnc[nH]2)C(=O)N2C(C(=O)O)=C(COC(N)=O)CS[C@@H]21 [7β-(1,2,4-triazol-4H-3-yl)thioacetamido-7α-methoxy-3-carbamoyloxymethyl-3-cephem-4-carboxylic acid] | 6.2 µg/mL (≈ 13.9 µM) | 25 µg/mL (≈ 56.2 µM) | > 400 µg/mL | 6.2 µg/mL (≈ 13.9 µM) | 6.2 µg/mL (≈ 13.9 µM) | 6.2 µg/mL (≈ 13.9 µM) | excellent antimicrobial activity | 1.5 µg/mL (≈ 3.37 µM) | 12.5 µg/mL (≈ 28.1 µM) | – | MIC [3]: 12.5 µg/mL (≈ 28.1 µM) |
| CO[C@@]1(NC(=O)CSc2nncs2)C(=O)N2C(C(=O)O)=C(CSc3nnnn3C)CS[C@@H]21 [7β-(1,3,4-thiadiazol-2-yl)thioacetamido-7α-methoxy-3-(1-methyl-1H-tetrazol-5-yl)thiomethyl-3-cephem-4-carboxylic acid] | 1.5 µg/mL (≈ 2.9 µM) | 3.1 µg/mL (≈ 6 µM) | > 200 µg/mL | 0.8 µg/mL (≈ 1.55 µM) | 0.8 µg/mL (≈ 1.55 µM) | 1.5 µg/mL (≈ 2.9 µM) | excellent antimicrobial activity | 0.4 µg/mL (≈ 0.774 µM) | 1.5 µg/mL (≈ 2.9 µM) | 1.5 µg/mL (≈ 2.9 µM) | – |
| CO[C@@]1(NC(=O)CSc2nncs2)C(=O)N2C(C(=O)O)=C(COC(C)=O)CS[C@@H]21 [7β-(1,3,4-thiadiazol-2-yl)thioacetamido-7α-methoxy-3-acetoxymethyl-3-cephem-4-carboxylic acid] | 3.1 µg/mL (≈ 6.73 µM) | 6.2 µg/mL (≈ 13.5 µM) | > 400 µg/mL | 3.4 µg/mL (≈ 7.38 µM) | 1.5 µg/mL (≈ 3.26 µM) | 3.1 µg/mL (≈ 6.73 µM) | excellent antimicrobial activity | 0.8 µg/mL (≈ 1.74 µM) | 6.2 µg/mL (≈ 13.5 µM) | 6.2 µg/mL (≈ 13.5 µM) | – |
| CO[C@@]1(NC(=O)CSc2nncs2)C(=O)N2C(C(=O)O)=C(COC(N)=O)CS[C@@H]21 [7β-(1,3,4-thiadiazol-2-yl)thioacetamido-7α-methoxy-3-carbamoyloxymethyl-3-cephem-4-carboxylic acid] | 3.1 µg/mL (≈ 6.72 µM) | 6.2 µg/mL (≈ 13.4 µM) | > 400 µg/mL | 1.5 µg/mL (≈ 3.25 µM) | 1.5 µg/mL (≈ 3.25 µM) | 3.1 µg/mL (≈ 6.72 µM) | excellent antimicrobial activity | 0.4 µg/mL (≈ 0.867 µM) | 3.1 µg/mL (≈ 6.72 µM) | 3.1 µg/mL (≈ 6.72 µM) | – |
| CO[C@@]1(NC(=O)CSc2ccon2)C(=O)N2C(C(=O)O)=C(COC(C)=O)CS[C@@H]21 [7β-(3-isoxazolyl)thioacetamido-7α-methoxy-3-acetoxymethyl-3-cephem-4-carboxylic acid] | 3.1 µg/mL (≈ 6.99 µM) | 3.1 µg/mL (≈ 6.99 µM) | > 400 µg/mL | 1.5 µg/mL (≈ 3.38 µM) | 0.8 µg/mL (≈ 1.8 µM) | 3.1 µg/mL (≈ 6.99 µM) | excellent antimicrobial activity | 0.2 µg/mL (≈ 0.451 µM) | 6.2 µg/mL (≈ 14 µM) | 6.2 µg/mL (≈ 14 µM) | – |
| CO[C@@]1(NC(=O)COc2ccon2)C(=O)N2C(C(=O)O)=C(CSc3nnnn3C)CS[C@@H]21 [7β-(3-isoxazolyloxy)acetamido-7α-methoxy-3-(1-methyl-1H-tetrazol-5-yl)thiomethyl-3-cephem-4-carboxylic acid] | – | – | – | – | – | – | excellent antimicrobial activity | – | – | – | Minimal inhibitory concentration (E. coli NIHJ): 3.1 µg/mL (≈ 6.41 µM); Minimal inhibitory concentration (Proteus vulgaris; V: Proteus vulgaris): 6.2 µg/mL (≈ 12.8 µM); Minimal inhibitory concentration [1]: > 400 µg/mL; Minimal inhibitory concentration [2, 8]: 1.5 µg/mL (≈ 3.1 µM); Minimal inhibitory concentration [3, 11]: 3.1 µg/mL (≈ 6.41 µM); Minimal inhibitory concentration [4]: 0.8 µg/mL (≈ 1.65 µM); Minimal inhibitory concentration (Klebsiella neumoniae 806; IV A: Klebsiella neumoniae 806): 3.1 µg/mL (≈ 6.41 µM); Minimal inhibitory concentration [6, 10]: 0.2 µg/mL (≈ 0.414 µM); Minimal inhibitory concentration [7]: 3.1 µg/mL (≈ 6.41 µM) |
| CO[C@@]1(NC(=O)COc2ccon2)C(=O)N2C(C(=O)O)=C(COC(C)=O)CS[C@@H]21 [7β-(3-isoxazolyloxy)acetamido-7α-methoxy-3-acetoxymethyl-3-cephem-4-carboxylic acid] | 6.2 µg/mL (≈ 14.5 µM) | – | > 400 µg/mL | 3.1 µg/mL (≈ 7.25 µM) | 0.8 µg/mL (≈ 1.87 µM) | 6.2 µg/mL (≈ 14.5 µM) | excellent antimicrobial activity | ≤ 0.1 µg/mL | 12.5 µg/mL (≈ 29.2 µM) | 6.2 µg/mL (≈ 14.5 µM) | MIC (Proteus vulgaris; Proteus vulgaris): 12.5 µg/mL (≈ 29.2 µM) |
| CO[C@@]1(NC(=O)CSc2nnc(C)s2)C(=O)N2C(C(=O)O)=C(CSc3nnnn3C)CS[C@@H]21 [7β-(5-methyl-1,3,4-thiadiazol-2-yl)thioacetamido-7α-methoxy-3-(1-methyl-1H-tetrazol-5-yl)thiomethyl-3-cephem-4-carboxylic acid] | 12.5 µg/mL (≈ 23.6 µM) | 3.1 µg/mL (≈ 5.84 µM) | 400 µg/mL (≈ 754 µM) | 1.5 µg/mL (≈ 2.83 µM) | 1.5 µg/mL (≈ 2.83 µM) | 12.5 µg/mL (≈ 23.6 µM) | excellent antimicrobial activity | 0.4 µg/mL (≈ 0.754 µM) | 6.2 µg/mL (≈ 11.7 µM) | 12.5 µg/mL (≈ 23.6 µM) | – |
| CO[C@@]1(NC(=O)CSc2nnc(C)s2)C(=O)N2C(C(=O)O)=C(COC(N)=O)CS[C@@H]21 [7β-(5-methyl-1,3,4-thiadiazol-2-yl)thioacetamido-7α-methoxy-3-carbamoyloxymethyl-3-cephem-4-carboxylic acid] | 6.2 µg/mL (≈ 13 µM) | 6.2 µg/mL (≈ 13 µM) | > 200 µg/mL | 3.1 µg/mL (≈ 6.52 µM) | 3.1 µg/mL (≈ 6.52 µM) | 6.2 µg/mL (≈ 13 µM) | excellent antimicrobial activity | 0.8 µg/mL (≈ 1.68 µM) | 12.5 µg/mL (≈ 26.3 µM) | 6.2 µg/mL (≈ 13 µM) | – |
| CO[C@@]1(NC(=O)CSc2ncc[nH]2)C(=O)N2C(C(=O)O)=C(CSc3nnnn3C)CS[C@@H]21 [7β-(imidazol-2-yl)thioacetamido-7α-methoxy-3-(1-methyl-1H-tetrazol-5-yl)thiomethyl-3-cephem-4-carboxylic acid] | 6.2 µg/mL (≈ 12.4 µM) | 12.5 µg/mL (≈ 25.1 µM) | > 200 µg/mL | 3.1 µg/mL (≈ 6.22 µM) | 3.1 µg/mL (≈ 6.22 µM) | 6.2 µg/mL (≈ 12.4 µM) | excellent antimicrobial activity | 0.8 µg/mL (≈ 1.6 µM) | 6.2 µg/mL (≈ 12.4 µM) | 6.2 µg/mL (≈ 12.4 µM) | – |
| CO[C@@]1(NC(=O)CSc2ncc[nH]2)C(=O)N2C(C(=O)O)=C(COC(C)=O)CS[C@@H]21 [7β-(imidazol-2-yl)thioacetamido-7α-methoxy-3-acetoxymethyl-3-cephem-4-carboxylic acid] | 12.5 µg/mL (≈ 28.3 µM) | 25 µg/mL (≈ 56.5 µM) | > 400 µg/mL | 6.2 µg/mL (≈ 14 µM) | 6.2 µg/mL (≈ 14 µM) | 12.5 µg/mL (≈ 28.3 µM) | excellent antimicrobial activity | 1.5 µg/mL (≈ 3.39 µM) | 25 µg/mL (≈ 56.5 µM) | 25 µg/mL (≈ 56.5 µM) | – |
| CO[C@@]1(NC(=O)CSc2ncc[nH]2)C(=O)N2C(C(=O)O)=C(COC(N)=O)CS[C@@H]21 [7β-(imidazol-2-yl)thioacetamido-7α-methoxy-3-carbamoyloxymethyl-3-cephem-4-carboxylic acid] | 1.5 µg/mL (≈ 3.38 µM) | 6.2 µg/mL (≈ 14 µM) | > 200 µg/mL | 1.5 µg/mL (≈ 3.38 µM) | 0.8 µg/mL (≈ 1.8 µM) | 3.1 µg/mL (≈ 6.99 µM) | excellent antimicrobial activity | ≤ 0.1 µg/mL | 3.1 µg/mL (≈ 6.99 µM) | 3.1 µg/mL (≈ 6.99 µM) | – |
| CO[C@@]1(NC(=O)CSCN=[N+]=[N-])C(=O)N2C(C(=O)O)=C(COC(C)=O)CS[C@@H]21 [7β-azidomethylthioacetamido-7α-methoxy-3-acetoxymethyl-3-cephem-4-carboxylic acid] | 6.2 µg/mL (≈ 14.4 µM) | 3.1 µg/mL (≈ 7.19 µM) | > 200 µg/mL | 1.5 µg/mL (≈ 3.48 µM) | 0.8 µg/mL (≈ 1.85 µM) | 6.2 µg/mL (≈ 14.4 µM) | excellent antimicrobial activity | 0.4 µg/mL (≈ 0.927 µM) | 6.2 µg/mL (≈ 14.4 µM) | 6.2 µg/mL (≈ 14.4 µM) | – |
| CO[C@@]1(NC(=O)CSCC#N)C(=O)N2C(C(=O)O)=C(CSc3nnnn3C)CS[C@@H]21 [7β-cyanomethylthioacetamido-7α-methoxy-3-(1-methyl-1H-tetrazol-5-yl)thiomethyl-3-cephem-4-carboxylic acid] | – | – | > 200 µg/mL | – | 0.8 µg/mL (≈ 1.7 µM) | – | excellent antimicrobial activity | – | 0.8 µg/mL (≈ 1.7 µM) | 0.8 µg/mL (≈ 1.7 µM) | MIC (Proteus vulgaris; Proteus vulgaris): 1.5 µg/mL (≈ 3.18 µM); MIC ([2]; ENTERITIDIS): 0.2 µg/mL (≈ 0.424 µM); MIC (Klebsiella neumoniae 806; Klebsiella, 806, read-out: Minimal inhibitory concentration): 0.8 µg/mL (≈ 1.7 µM); MIC ([6]; Staphylococcus aureus, 209P): 0.2 µg/mL (≈ 0.424 µM) |
| CO[C@@]1(NC(=O)CSCC#N)C(=O)N2C(C(=O)O)=C(COC(C)=O)CS[C@@H]21 [7β-cyanomethylthioacetamido-7α-methoxy-3-acetoxymethyl-3-cephem-4-carboxylic acid] | 1.5 µg/mL (≈ 3.61 µM) | 6.2 µg/mL (≈ 14.9 µM) | > 400 µg/mL | 0.8 µg/mL (≈ 1.93 µM) | 0.8 µg/mL (≈ 1.93 µM) | 1.5 µg/mL (≈ 3.61 µM) | excellent antimicrobial activity | 0.2 µg/mL (≈ 0.481 µM) | 3.1 µg/mL (≈ 7.46 µM) | 1.5 µg/mL (≈ 3.61 µM) | – |
| CO[C@@]1(NC(=O)CSCC#N)C(=O)N2C(C(=O)O)=C(COC(N)=O)CS[C@@H]21 [7β-cyanomethylthioacetamido-7α-methoxy-3-carbamoyloxymethyl-3-cephem-4-carboxylic acid] | 1.5 µg/mL (≈ 3.6 µM) | 6.2 µg/mL (≈ 14.9 µM) | > 400 µg/mL | 0.4 µg/mL (≈ 0.961 µM) | 1.5 µg/mL (≈ 3.6 µM) | 0.4 µg/mL (≈ 0.961 µM) | excellent antimicrobial activity | 0.8 µg/mL (≈ 1.92 µM) | 3.1 µg/mL (≈ 7.44 µM) | 0.8 µg/mL (≈ 1.92 µM) | – |

Source: patent publication US3960845A, “Process for preparing 7β-acylamino-7α-alkoxycephalosporins or 6β-acylamino-6α-alkoxypenicillins” (Sankyo Company Limited, priority 1974, dated 1976)
